Experimental findings from patent US20220160721A1, “METHODS OF TREATING CANCER” (Epizyme, Inc., priority 2016, published 2022) are described below.

Data set [1] can be described thus: Oral bioavailability. Conditions: in vivo.
Data set [2] deals with Bin-67 xenografts. The experiment in a line: In vivo efficacy study, Bin-67 xenograft. More on the design: species or system BALB/c nude mice. Conditions: day 18. On the procedure: (§1) In vivo efficacy studies: For the in vivo efficacy studies, there were 10 mice per dose group and each mouse was inoculated subcutaneously at the right flank. All cells were suspended in a 0.2 mL mixture of base media and Matrigel at 1:1 for tumor development. Bin-67 cells were inoculated at 5×10^6 cells/mouse and treatment began when the mean tumor sizes reached 146.08 mm^3 (28 days post-inoculation). COV434 cells were inoculated at 1×10^7 cells/mouse and treatment began when mean tumor sizes reached 158.88 mm^3 (20 days post-inoculation). TOV112D cells were inoculated at 5×10^6 cells/mouse and treatment began when the mean tumor size reached 128.13 mm^3 (day 14 post inoculation). Mice were assigned into groups using a randomized block design. […] Body weights were measured twice a week for the duration of the study. Tumor size was measured twice weekly in two dimensions using a caliper, and the volume was expressed in cubic millimeters. Animals were euthanized 3 hours post-final dose, with blood and tissues collected for analysis.

The test system of data set [3] is TOV112D xenografts. The experiment in a line: In vivo efficacy study, TOV112D xenograft. More on the design: species or system BALB/c nude mice. The settings on record: day 14. The protocol:
as §1

In data set [4] the test system is COV434 xenografts. The experiment in a line: In vivo efficacy study, COV434 xenograft. More on the design: species or system BALB/c nude mice.
The conditions of data set [5]: mouse, in vivo, po. On the procedure:
as §1

Data set [6] in a line: Plasma exposure in xenograft efficacy studies. The class given is in vivo, BALB/c nude mice. Conditions: plasma collected 5 minutes prior or 3 hours post final dose, all models. The protocol: as §1
Data set [7] concerns COV434. The experiment in a line: Time course annexin and cell cycle, COV434. The class given is cell-based. Conditions: COV434, after 3 days through day 14. On the procedure: 1×10^5 harvested cells were plated in triplicate in 96-well format and stained with Millipore's Guava Nexin reagent for 1 hr at RT. Percentages of cells undergoing apoptosis were measured using Millipore's Guava EasyCyte Flow Cytometer. For cell cycle analysis, 5×10^5 cells were plated in a 96 well plate, washed once with PBS, and fixed overnight in ice-cold 70% ethanol at 4° C. Fixed cells were washed with PBS, then stained with Millipore's Guava Cell Cycle Reagent and data obtained from EasyCyte Flow Cytometer.

Data set [8] concerns Bin-67. The experiment in a line: Time course annexin and cell cycle, Bin-67. The class given is cell-based. Conditions: Bin-67, apoptotic events as early as day 4. The protocol:
(§2) Percentages of cells undergoing apoptosis were measured using Millipore's Guava EasyCyte Flow Cytometer. For cell cycle analysis, 5×10^5 cells were plated in a 96 well plate, washed once with PBS, and fixed overnight in ice-cold 70% ethanol at 4° C. Fixed cells were washed with PBS, then stained with Millipore's Guava Cell Cycle Reagent and data obtained from EasyCyte Flow Cytometer.

The test system of data set [9] is JHOS-2. The experiment in a line: Time course annexin and cell cycle, JHOS-2. The class given is cell-based. The settings on record: JHOS-2 (wild type for both SMARCA2 and SMARCA4). On the procedure: as §2
Data set [10] concerns SMARCA2. Kind of data set: SMARCA2 expression upon treatment in SCCOHT cell lines. Conditions: over time. The class given is cell-based.
Data set [11] relates to H3K27me3. Kind of data set: H3K27me3 ELISA in xenograft tumors. Conditions: tumors harvested at study endpoints, ratio of H3K27me3 to total H3 by ELISA. For orientation: In an ELISA, binding on a coated surface is turned into a signal by an enzyme label.

With `CCN(c1cc(-c2ccc(CN3CCOCC3)cc2)cc(C(=O)NCc2c(C)cc(C)[nH]c2=O)c1C)C1CCOCC1` [tazemetostat], the oral bioavailability result in [1] is “orally bioavailable”. Moreover, the “tumor growth inhibition (TGI)” value in data set [2] (125 mg/kg orally BID) was 56%; in data set [2] (250 mg/kg orally BID), 87%; in data set [3] (125 mg/kg orally BID), 28%; in data set [3] (500 mg/kg orally BID) it was 35%; in data set [4] (125 mg/kg orally BID, day 28), 74%. The compound further returned an average tumor volume in data set [2] (500 mg/kg orally BID) of 41 mm^3. The tumor response entry in data set [2] (500 mg/kg orally BID) was “regressions in all 10 animals”; in data set [4] (500 mg/kg orally BID, day 28), “complete regressions”. Moreover, in data set [4] (500 mg/kg cohort, 28 days after dose cessation), the tumor regrowth entry is recorded as “not observed”. In data set [4] (500 mg/kg orally BID, day 28), the “animals having unmeasurable tumors” value was 7 of the 8. Moreover, the “tolerability, bodyweight loss and clinical observations” value in data set [5] is “well tolerated with minimal bodyweight loss and no other clinical observations”. Besides, in [6], the “systemic exposure in plasma” value is “Dose-dependent systemic exposure”. Also, the “cell cycle and apoptosis” value is “increase in the percentage of cells in sub-G1 phase and a concomitant reduction in G2 phase” in [7]; “more modest increase in the percentage of sub-G1 cells” in data set [8]; “did not show any cell cycle changes or apoptotic events” in data set [9]. The SMARCA2 expression entry in [10] was “time-dependent increases in SMARCA2 expression”. The “H3K27me3 levels in tumors” value in data set [11] is listed as “robust inhibition”.
